Source: ChEMBL document CHEMBL5523723, “G Protein-Coupled Estrogen Receptor-Mediated Anti-Inflammatory and Mucosal Healing Activity of a Trimethylpyridinol Analogue in Inflammatory Bowel Disease” (J Med Chem, 2024)

What was measured:
U-937 = experiment: Inhibition of TNFalpha induced adhesion of TPA treated human U-937 cells to human HT-29 cells at 1 uM pretreated with HT-29 for 1 hr followed by U-937 addition along with TNFalpha stimulation for 3 hrs by fluorescence based microplate reader assay relative to control; type: functional; details: time 4 hrs
[1] = Inhibition of IL6 induced adhesion of TPA treated human U-937 cells to human HT-29 cells at 1 uM pretreated with HT-29 for 1 hr followed by U-937 addition along with IL6 stimulation for 3 hrs by fluorescence based microplate reader assay relative to control; type: functional; details: time 4 hrs
Mus musculus [2] = experiment: Antiinflammatory activity against DSS-induced chronic colitis in C57BL/6N/Crl mouse model assessed as recovery of colon weight at 30 mg/kg, po administered daily 6 days per week for 5 weeks
Mus musculus [3] = experiment: Antiinflammatory activity against DSS-induced chronic colitis in C57BL/6N/Crl mouse model assessed as recovery of body weight at 30 mg/kg, po administered daily 6 days per week for 5 weeks

| Compound | inhibition at 1 µM (U-937) | inhibition at 1 µM [1] | Activity (Mus musculus [2]) | Activity (Mus musculus [3]) |
| --- | --- | --- | --- | --- |
| Cc1cccc(C(=O)Nc2nc(C)c(O)c(C)c2C)c1 | 63.9% | 48.9% |  |  |
| Cc1nc(NC(=O)c2c(C)noc2C)c(C)c(C)c1O | 85% | 74% |  |  |
| Cc1nc(NC(=O)c2ccc(C(C)(C)C)cc2)c(C)c(C)c1O |  | 29.4% |  |  |
| Cc1nc(NC(=O)c2ccc(F)cc2)c(C)c(C)c1O |  | 5.5% |  |  |
| Cc1nc(NC(=O)c2ccc(-c3cc(Cl)ccc3Cl)o2)c(C)c(C)c1O | 78.2% | 69.6% |  |  |
| COc1ccc(C(=O)Nc2nc(C)c(O)c(C)c2C)cc1 |  | 6.5% |  |  |
| Cc1nc(NC(=O)c2cccc(F)c2)c(C)c(C)c1O | 54.1% | 44.2% |  |  |
| Cc1nc(NC(=O)c2ccc(F)cc2F)c(C)c(C)c1O | 71.4% | 62.4% |  |  |
| Cc1nc(NC(=O)c2sc3ccccc3c2Cl)c(C)c(C)c1O |  | 11.4% |  |  |
| C[C@@H]1CCN(C(=O)CC#N)C[C@@H]1N(C)c1ncnc2[nH]ccc12 [TOFACITINIB] |  |  | 68.2% | 29.5% |
| Cc1nc(NC(=O)c2ccccc2F)c(C)c(C)c1O | 36.4% | 66.4% |  |  |
| Cc1ccccc1C(=O)Nc1nc(C)c(O)c(C)c1C | 47.3% | 41.5% |  |  |
| Cc1nc(NC(=O)c2ccc(Cl)cc2Cl)c(C)c(C)c1O | 58.6% | 46.4% |  |  |
| Cc1nc(NC(=O)c2ccc3ccccc3c2)c(C)c(C)c1O | 42.9% | 33.1% |  |  |
| Cc1nc(NC(=O)c2c(-c3ccccc3)noc2C)c(C)c(C)c1O | 18.8% | 37.8% |  |  |
| Cc1ccc2c(Cl)c(C(=O)Nc3nc(C)c(O)c(C)c3C)sc2c1 |  | 8.7% |  |  |
